These results are taken from US8906913B2, “Azabicyclohexanes” (Panacea Biotec Limited, priority 2009, dated 2014).

Molecules are shown by their SMILES. In brackets after ≈: the same amount, converted by molar mass. Like-named read-outs stand apart in the source and are kept apart here. A value given as a limit tells only on which side of the number the result lay.

Assay [1] relates to Enterococcus faecalis ATCC 29212 Vancomycin Sensitive. Nature of the assay: In-vitro antibacterial activity, broth microdilution MIC. The class given is cell-based. The note with it: ATCC29212, Table 9, E. faecalis, read-out: Antimicrobial activity (in vitro MIC) ATCC 29212. The procedure:
(§1) The in-vitro antibacterial activity of the compounds of the present invention (as described in Table 7) was determined by a broth microdilution following the guidelines prescribed by the Clinical and Laboratory Standards Institute (CLSI). This method is described in the CLSI Document M7-A7, Vol. 26, No. 2, “Methods for Dilution Antimicrobial Susceptibility Test for Bacteria that Grow Aerobically; Approved Standard-Seventh Edition”, which is incorporated herein by reference. Minimum Inhibitory Concentration (MIC) is defined as the minimum concentration of test compound which inhibits the growth of bacteria as visible or seen by the naked eye. This test can also be carried out by agar dilution method.
(§2) The compounds of the present invention were tested against a panel of standard microorganisms obtained from ATCC (American type culture collection). Linezolid was used as comparator in all the tests.
(§3) In the broth microdilution method, the compound was dissolved in dimethylsulfoxide and two fold serial dilutions were carried out in 96 well microtitre plates. The inoculum was prepared by adjusting the turbidity of actively growing broth culture and added to the wells to obtain a final bacterial count of ˜2-5×10^4 CFU/well. The microtitre plates were incubated at 35±2° C. for 16-20 h and then read visually.
For orientation: Broth dilution looks for growth in wells or tubes with falling amounts of substance.

In assay [2] the test system is Staphylococcus aureus ATCC 29213 MSSA (Methicillin sensitive). The description is as above. Format: cell-based. Conditions: Table 9, S. aureus MSSA, read-out: Antimicrobial activity (in vitro MIC) ATCC 29213. The procedure:
as §1, §2, §3

For assay [3], the system named is Enterococcus faecium ATCC 700221 VRE (Vancomycin resistant E. faecium). The description is as above. Format: cell-based. The note with it: Table 9, read-out: Antimicrobial activity (in vitro MIC) ATCC 700221. The procedure: as §1, §2, §3
Assay [4] deals with Staphylococcus aureus ATCC 33591 MRSA (Methicillin resistant). The assay is described as above. The note with it: Table 9, S. aureus MRSA, read-out: Antimicrobial activity (in vitro MIC) ATCC 33591. The class given is cell-based. The procedure:
as §1, §2, §3

The test system of another assay is male SWISS albino mice. In words: Forced Swim Test. Format: in vivo. The note with it: for CNS Activity (in vivo FST) % decrease in immobility time (dose 32 mg/kg) / CNS Activity (in vivo FST) % decrease in immobility time: Table 9; for inhibition in vivo at 32 mg/kg: Mus musculus, 0.25 h, read-out: % decrease in immobility time (dose 32 mg/kg); for CNS Activity (in vivo FST) % decrease in immobility time: footnote *: dose 64 mg/kg/p.o. The procedure: This test was conducted according to the method of Porsolt et al. (Porsolt, R. D., et al., Behavioural despair in mice: A primary screening test for antidepressants. Arch. in Pharmacodyn. Ther., 229, pp 327-336 (1977)).
A test compound was suspended in deionized water, unless otherwise specified, and this suspension was orally administered to male SWISS albino mice (7 to 9 week old). 15 min later, the mice were placed in a water tank having a water depth of 15 cm and a water temperature of 25±1° C. and immediately thereafter allowed to swim for 6 min. Then, a time during which the mouse was immobile (immobility time) was measured for the last 4 min.

The mark [5] stands for this setting: Table 8, mice, oral, 32 mg/kg, suspended in deionized water, 15 min before test.
[6] abbreviates: Table 8, mice, oral, suspended in deionized water, 15 min before test.

Take `CC(=O)N1CC2CC2(c2ccc(N3C[C@H](CO)OC3=O)cc2)C1` (stereo partly drawn) [drawing 534]: the minimum inhibitory concentration (MIC) in assay [1] was determined as 4 µg/mL (≈ 12.6 µM); in assay [2] it was 4 µg/mL (≈ 12.6 µM); in assay [3], 4 µg/mL (≈ 12.6 µM); in assay [4], 2 µg/mL (≈ 6.32 µM). The “CNS Activity (in vivo FST) % decrease in immobility time (dose 32 mg/kg)” value with male SWISS albino mice (mice, 32 mg/kg) worked out at 5.1 ± 1.4%.
For the molecule `CCN1CC2CC2(c2ccc(N3CCOC3=O)cc2)C1.Cl` (stereo not drawn), the minimal inhibitory concentration (MIC) in assay [1], in assay [2], in assay [3] and in assay [4] was greater than 32 µg/mL each time. For the same molecule, the “CNS Activity (in vivo FST) % decrease in immobility time (dose 32 mg/kg)” value in the assay with male SWISS albino mice (mice, 32 mg/kg) amounted to 99.2 ± 0.8%.
In the case of `CCN1C[C@H]2C[C@@]2(c2ccc(N3CCC(F)C3)cc2)C1` (stereo partly drawn), the inhibition in vivo at 32 mg/kg with male SWISS albino mice (setting [5]) came out at 75.5 ± 12.9%.
For `CC1CN(c2ccc([C@]34CNC[C@H]3C4)cc2)CC(C)O1` (stereo partly drawn), in the assay on male SWISS albino mice (setting [6]), the “% decrease in immobility time (dose 64 mg/kg)” value (“% decrease … (dose 64 mg/kg)” for short) came to 63.9 ± 4.8%.
Turning to `CCN1C[C@H]2C[C@@]2(c2ccc(N3C[C@H](C)O[C@@H](C)C3)cc2)C1`, in the assay with male SWISS albino mice (setting [5]), the inhibition in vivo at 32 mg/kg was found to be 79.8 ± 10.7%.
Turning to `COCCN1CC2CC2(c2ccc(N3CCOCC3)cc2)C1` (stereo not drawn), in the assay on male SWISS albino mice (setting [6]), the “% decrease … (dose 64 mg/kg)” value amounted to 62.4 ± 16.3%.
As to `CCN1C[C@H]2C[C@@]2(c2ccc(N3CCCC3)cc2)C1`, the inhibition in vivo at 32 mg/kg with male SWISS albino mice (setting [5]) is 97.7 ± 2.3%.
In the case of `c1cc(C23CNCC2C3)ccc1N1CCOCC1` (stereo not drawn) [drawing 537], the minimal inhibitory concentration (MIC) in assay [1], in assay [2], in assay [3] and in assay [4] was greater than 32 µg/mL in each case. The “CNS Activity (in vivo FST) % decrease in immobility time” value with male SWISS albino mice (mice) is 84.8* %.
Regarding `CCOCC1C2CN(CC)CC12c1ccc(N2CCCC2)cc1` (stereo not drawn), in the assay with male SWISS albino mice (setting [5]), the inhibition in vivo at 32 mg/kg stood at 80.6 ± 13.7%.
On to `CCN1CC2CC2(c2ccc(N3CC(C)OC(C)C3)cc2)C1` (stereo not drawn), for which the inhibition in vivo at 32 mg/kg in the assay with male SWISS albino mice (setting [5]) was 81.6 ± 10.1%.
On the same count and under the same terms, the value for `CCN1CC2C(COC)C2(c2ccc(N3CCCC3)cc2)C1` (stereo not drawn) [drawing 531] was 97.2 ± 1.2%.
As to `CCN1CC2CC2(c2ccc(N3CCOC3=O)cc2)C1` (stereo not drawn), in the assay with male SWISS albino mice (po), the inhibition in vivo at 32 mg/kg turned out to be 99.2 ± 0.8%.
Turning to `CCN1CC2CC2(c2ccc(N3CCCC3)cc2)C1` (stereo not drawn) [drawing 519], the inhibition in vivo at 32 mg/kg in the assay with male SWISS albino mice (setting [5]) is 99.9 ± 0.1%.
Regarding `CCN1CC2C(COC)C2(c2ccc(N3CCCC3)cc2)C1` (stereo not drawn) [drawing 538], the MIC in assay [1], in assay [2], in assay [3] and in assay [4] was greater than 32 µg/mL throughout. Besides, in the assay with male SWISS albino mice (mice, 32 mg/kg), the “CNS Activity (in vivo FST) % decrease in immobility time (dose 32 mg/kg)” value is 97.2 ± 1.2%.
Take `CCN1CC2CC2(c2ccc(N3CCOCC3)cc2)C1` (stereo not drawn): the MIC in assay [1], in assay [2], in assay [3] and in assay [4] was greater than 32 µg/mL in each case. Besides, in the assay with male SWISS albino mice (mice), the “CNS Activity (in vivo FST) % decrease in immobility time” value is recorded as 81.0 ± 7.1* %.
For the molecule `CCN1CC2CC2(c2ccc(N3CCN(c4ccccc4)CC3)cc2)C1` (stereo not drawn), in the assay on male SWISS albino mice (setting [6]), the “% decrease … (dose 64 mg/kg)” value is 65.8 ± 9.9%.
Regarding `CCN1CC2CC2(c2ccc(N3CCC(F)CC3)cc2)C1` (stereo not drawn), the inhibition in vivo at 32 mg/kg in the assay with male SWISS albino mice (setting [5]) was 62.8 ± 23.4%.
Take `CCN1CC2CC2(c2cc3cc(N4CCOCC4)ccc3s2)C1` (stereo not drawn): in the assay with male SWISS albino mice (setting [6]), the “% decrease … (dose 64 mg/kg)” value worked out at 38.4 ± 2.7%.
Same read-out and setting: for `CCN1CC2CC2(c2ccc(N3CCn4cnnc4C3)cc2)C1` (stereo not drawn) the value was 89.6 ± 10.4%.
As to `CCN1CC2CC2(c2ccc(N3CCCC3)cc2)C1` (stereo not drawn) [drawing 535], the minimum inhibitory concentration (MIC) in assay [1], in assay [2], in assay [3] and in assay [4] was greater than 32 µg/mL in each case. In addition, in the assay on male SWISS albino mice (mice, 32 mg/kg), the “CNS Activity (in vivo FST) % decrease in immobility time (dose 32 mg/kg)” value is given as 99.9 ± 0.1%.
On to `CCN1CC2CC2(c2ccc(N3CCC(F)C3)cc2)C1` (stereo not drawn), for which, in the assay with male SWISS albino mice (setting [5]), the inhibition in vivo at 32 mg/kg amounted to 77.1 ± 11.2%.

As usually defined, the MIC is the lowest concentration that inhibits growth of the organism.
